Measured values from US9273036B2, “Oxindole derivatives carrying an oxetane substituent and use thereof for treating vasopressine-related diseases” (AbbVie Deutschland GmbH & Co. KG, priority 2013, dated 2016).
pKi: −log10 of the molar value.

target: T1, human vasopressin V1b receptor (Homo sapiens, UniProt P47901); assay: biochemical
T1 sequence (P47901 1-424): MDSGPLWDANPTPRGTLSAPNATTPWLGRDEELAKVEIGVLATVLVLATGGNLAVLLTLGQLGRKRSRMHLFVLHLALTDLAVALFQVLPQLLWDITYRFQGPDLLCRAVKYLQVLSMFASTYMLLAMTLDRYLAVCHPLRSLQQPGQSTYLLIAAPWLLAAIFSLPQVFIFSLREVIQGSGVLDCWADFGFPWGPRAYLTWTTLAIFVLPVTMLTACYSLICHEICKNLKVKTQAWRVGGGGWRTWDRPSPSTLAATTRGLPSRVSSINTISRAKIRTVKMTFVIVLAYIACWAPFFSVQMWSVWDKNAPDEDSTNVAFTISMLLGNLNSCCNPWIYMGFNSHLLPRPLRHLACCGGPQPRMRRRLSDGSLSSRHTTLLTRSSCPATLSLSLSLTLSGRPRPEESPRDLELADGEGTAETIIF

Row | SMILES | pKi
1 | CCOc1ncccc1[C@]1(NC(=O)N2CCC(N3CCN(C4COC4)CC3)CC2)C(=O)N(S(=O)(=O)c2ccc(OC)cc2OC)c2ccc(Cl)cc21 [Example 14, (S)—N-(5-chloro-1-((2,4-dimethoxyphenyl)sulfonyl)-3-(2-ethoxypyridin-3-yl)-2-oxoindolin-3-yl)-4-(4-(oxetan-3-yl)piperazin-1-yl)piperidine-1-carboxamide] | 8.00 to 9.00
2 | CCOc1ncccc1[C@]1(NC(=O)N2CCC(N3CCN(C4COC4)CC3)CC2)C(=O)N(S(=O)(=O)c2ccc(C#N)cc2)c2ccc(C#N)cc21 [Example 12, (S)—N-(5-cyano-1-((4-cyanophenyl)sulfonyl)-3-(2-ethoxypyridin-3-yl)-2-oxoindolin-3-yl)-4-(4-(oxetan-3-yl)piperazin-1-yl)piperidine-1-carboxamide] | 7.00 to 8.00
3 | CCOc1ncccc1[C@]1(NC(=O)N2CCC(N3CCN(C4COC4)CC3)CC2)C(=O)N(S(=O)(=O)c2ccc(OC)cc2)c2ccc(C#N)cc21 [Example 13, (S)—N-(5-cyano-3-(2-ethoxypyridin-3-yl)-1-((4-methoxyphenyl)sulfonyl)-2-oxoindolin-3-yl)-4-(4-(oxetan-3-yl)piperazin-1-yl)piperidine-1-carboxamide] | 7.00 to 8.00
4 | CCOc1ncccc1[C@]1(NC(=O)N2CCN(C3CCN(C4COC4)CC3)CC2)C(=O)N(S(=O)(=O)c2ccc(C#N)cc2)c2ccc(C#N)cc21 [Example 5, (S)—N-(5-cyano-1-((4-cyanophenyl)sulfonyl)-3-(2-ethoxypyridin-3-yl)-2-oxoindolin-3-yl)-4-(1-(oxetan-3-yl)piperidin-4-yl)piperazine-1-carboxamide] | 8.00 to 9.00
5 | CCOc1ncccc1C1(NC(=O)N2CCN(C3CCN(C4COC4)CC3)CC2)C(=O)N(S(=O)(=O)c2ccccc2)c2ccc(C#N)cc21 (centres unmarked) [Example 4, N-(5-cyano-3-(2-ethoxypyridin-3-yl)-2-oxo-1-(phenylsulfonyl)indolin-3-yl)-4-(1-(oxetan-3-yl)piperidin-4-yl)piperazine-1-carboxamide] | 7.00 to 8.00
6 | CCOc1ncccc1[C@]1(NC(=O)N2CCC(N3C[C@@H]4C[C@H]3CN4C3COC3)CC2)C(=O)N(S(=O)(=O)c2ccc(OC)cc2OC)c2ccc(C#N)cc21 [Example 17, N—((S)-5-cyano-1-((2,4-dimethoxyphenyl)sulfonyl)-3-(2-ethoxypyridin-3-yl)-2-oxoindolin-3-yl)-4-((1S,4S)-5-(oxetan-3-yl)-2,5-diazabicyclo[2.2.1]heptan-2-yl)piperidine-1-carboxamide] | 7.00 to 8.00
7 | CCOc1ncccc1C1(NC(=O)N2CCN(C3CCN(C4COC4)CC3)CC2)C(=O)N(S(=O)(=O)c2ccc(OC)cc2)c2ccc(C#N)cc21 (centres unmarked) [Example 3, N-(5-cyano-3-(2-ethoxypyridin-3-yl)-1-((4-methoxyphenyl)sulfonyl)-2-oxoindolin-3-yl)-4-(1-(oxetan-3-yl)piperidin-4-yl)piperazine-1-carboxamide] | 8.00 to 9.00

The remaining lines, values ahead:

Row | pKi | SMILES
8 | 8.00 to 9.00 | CCOc1ncccc1[C@]1(NC(=O)N2CCN(C3CCN(C4COC4)CC3)CC2)C(=O)N(S(=O)(=O)c2cc(F)c(OC)cc2OC)c2ccc(C#N)cc21 [Example 8, (S)—N-(5-cyano-3-(2-ethoxypyridin-3-yl)-1-((5-fluoro-2,4-dimethoxyphenyl)sulfonyl)-2-oxoindolin-3-yl)-4-(1-(oxetan-3-yl)piperidin-4-yl)piperazine-1-carboxamide]
9 | > 9.00 | CCOc1ncccc1[C@]1(NC(=O)N2CCN(C3CCN(C4COC4)CC3)CC2)C(=O)N(S(=O)(=O)c2ccc(OC)cc2OC)c2ccc(C#N)cc21 [Example 1, (S)—N-(5-cyano-1-((2,4-dimethoxyphenyl)sulfonyl)-3-(2-ethoxypyridin-3-yl)-2-oxoindolin-3-yl)-4-(1-(oxetan-3-yl)piperidin-4-yl)piperazine-1-carboxamide]
10 | 8.00 to 9.00 | COc1ccc(S(=O)(=O)N2C(=O)C(NC(=O)N3CCN(C4CCN(C5COC5)CC4)CC3)(c3cccnc3OC)c3cc(C#N)ccc32)c(OC)c1 (centres unmarked) [Example 15, N-(5-cyano-1-((2,4-dimethoxyphenyl)sulfonyl)-3-(2-methoxypyridin-3-yl)-2-oxoindolin-3-yl)-4-(1-(oxetan-3-yl)piperidin-4-yl)piperazine-1-carboxamide]
11 | 8.00 to 9.00 | CCOc1ncccc1[C@]1(NC(=O)N2CCN(C3CCN(C4COC4)CC3)CC2)C(=O)N(S(=O)(=O)c2ccc(OC)cc2OC)c2cc(F)c(F)cc21 [Example 9, (S)—N-(1-((2,4-dimethoxyphenyl)sulfonyl)-3-(2-ethoxypyridin-3-yl)-5,6-difluoro-2-oxoindolin-3-yl)-4-(1-(oxetan-3-yl)piperidin-4-yl)piperazine-1-carboxamide]
12 | 8.00 to 9.00 | CCOc1ncccc1[C@]1(NC(=O)N2CCN(C3CCN(C4COC4)CC3)CC2)C(=O)N(S(=O)(=O)c2ccc(OC)cc2F)c2ccc(C#N)cc21 [Example 6, (S)—N-(5-cyano-3-(2-ethoxypyridin-3-yl)-1-((2-fluoro-4-methoxyphenyl)sulfonyl)-2-oxoindolin-3-yl)-4-(1-(oxetan-3-yl)piperidin-4-yl)piperazine-1-carboxamide]
13 | > 9.00 | CCOc1ncccc1[C@]1(NC(=O)N2CCN(C3CCN(C4COC4)CC3)CC2)C(=O)N(S(=O)(=O)c2ccc(OC)cc2OC)c2ccc(Cl)cc21 [Example 10, (S)—N-(5-chloro-1-((2,4-dimethoxyphenyl)sulfonyl)-3-(2-ethoxypyridin-3-yl)-2-oxoindolin-3-yl)-4-(1-(oxetan-3-yl)piperidin-4-yl)piperazine-1-carboxamide]
14 | 7.00 to 8.00 | CCOc1ncccc1[C@]1(NC(=O)N2CCN(C3CCN(C4COC4)CC3)CC2)C(=O)N(S(=O)(=O)c2ccc(OC)c(C)c2C)c2ccc(C#N)cc21 [Example 18, (S)—N-(5-cyano-3-(2-ethoxypyridin-3-yl)-1-((4-methoxy-2,3-dimethylphenyl)sulfonyl)-2-oxoindolin-3-yl)-4-(1-(oxetan-3-yl)piperidin-4-yl)piperazine-1-carboxamide]
